Measurements from patent US20210008018A1, “DEUTERATED ANALOGS OF D-BETA-HYDROXYBUTYRIC ACID AND USES THEREOF” (Concert Pharmaceuticals, Inc., priority 2018, published 2021).

How the values were obtained:
[1] = target: β-hydroxybutyrate dehydrogenase (Paucimonas lemoignei, UniProt A0A4R3I0R9); experiment: Metabolic stability using D-β-hydroxybutyrate dehydrogenase (NADH formation, Km/Vmax); settings: Pseudomonas lemoignei, pH 7.8
Protocol: (§1) Materials: β-Hydroxybutyrate Dehydrogenase from Pseudomonas lemoignei, nicotinamide adenine dinucleotide sodium salt (NAD), β-nicotinamide adenine dinucleotide, reduced dipotassium salt (NADH) and Trizma Base were purchased from Sigma-Aldrich.
(§2) Determination of Metabolic Stability of Compounds of the Invention Using D-β-hydroxybutyrate Dehydrogenase: 100 mM Tris pH 7.8 was prepared for assessing catalytic activity and as diluent to form corresponding solutions. Enzyme solution was prepared by dissolving lyophilized β-hydroxybutyrate dehydrogenase from Pseudomonas lemoignei in 100 mM Tris pH 7.8 to a final concentration of 200 Units/mL. The enzyme working stock solution (2 Units/mL) was prepared by dilution of stock solution (200 Units/mL) with 100 mM Tris pH 7.8 buffer. 30 mM NAD stock solution was prepared by dissolving NAD in 100 mM Tris pH 7.8 buffer. […] Working stock solutions of test compounds were prepared over the concentration range of 1 to 40 mM by appropriate dilutions in 100 mM Tris pH 7.8 buffer. 10 mM analytical standard stock solution were prepared by dissolving NADH in 100 mM Tris pH 7.8. Analytical standards were prepared over the concentration range of 0.05 to 1.5 mM by appropriate dilutions in 100 mM Tris pH 7.8. Enzymatic assays were conducted by aliquoting 40 μL of working test compound stock solution, 6 μL of enzyme working stock solution, 178 μL 100 mM Tris pH 7.8 into 96-well white clear bottom plates. The enzymatic assay was initiated by adding 16 μL of 30 mM NAD. The reaction was incubated at 37° C. The progress of each reaction was monitored over 15 minutes by measuring absorbance at […] of all wells every minute using a Perkin Elmer Enspire Multimode plate reader. Blank wells were prepared to subtract background. NADH formation was quantified using NADH analytical standard curve on same 96-well plate used to monitor enzyme activity. All reactions were conducted in triplicate.
(§3) The activity was determined by monitoring the rate of conversion of NAD to NADH by change in absorbance at 340 nm. The appropriate background was subtracted for each concentration and compound investigated and NADH concentration formed was calculated using NADH standard curve. The initial rates (v) for NADH formation as a function of initial test compound concentration (C) to derive Km and Vmax values by non-linear regression using Michaelis-Menten equation using GraphPad Prism 7 for Windows (version 7.03).
(§4) Difference between Vmax, Km and catalytic efficiency (Vmax/Km) for each compound was assessed using unpaired t-test with statistical significance using Holm-Sidak method with α=0.05. The unpaired t-test values were calculated using GraphPad Prism 7 for Windows (version 7.03).
(§5) Intrinsic clearance (CLint) and half-life (t1/2) values were calculated for each test compound using the following equations.

[2] = target: β-hydroxybutyrate dehydrogenase from Pseudomonas lemoignei (Paucimonas lemoignei, UniProt A0A4R3I0R9); experiment: as above; settings: for CLint Ratio (NCE/PCE): NCE = Compound 100, 102 or 202, PCE = protio DBHB; for T1/2 Δ (%): [(deuterated species)-(nondeuterated species)](100)/(nondeuterated species); for ^DV: deuterium isotope effect on Vmax versus D-β-hydroxybutyric acid; for ^D(V/K): deuterium isotope effect on Vmax/Km versus D-β-hydroxybutyric acid; for CLint: intrinsic clearance calculated from Vmax and Km; for half-life: b-hydroxybutyrate dehydrogenase, pH 7.8; for Vmax: compound as substrate, NADH formation, Michaelis-Menten non-linear regression, 100 mM Tris pH 7.8
Protocol: as §1, §2, §3, §4, §5

[3] = using Vmax/Km to predict clearance, vs D-β-hydroxybutyric acid, 0.167 mM to 6.7 mM
[4] = vs D-β-hydroxybutyric acid, D-β-Hydroxybutyrate Dehydrogenase Assay

β-hydroxybutyrate dehydrogenase from Pseudomonas lemoignei, sequence (A0A4R3I0R9 entry or part of it): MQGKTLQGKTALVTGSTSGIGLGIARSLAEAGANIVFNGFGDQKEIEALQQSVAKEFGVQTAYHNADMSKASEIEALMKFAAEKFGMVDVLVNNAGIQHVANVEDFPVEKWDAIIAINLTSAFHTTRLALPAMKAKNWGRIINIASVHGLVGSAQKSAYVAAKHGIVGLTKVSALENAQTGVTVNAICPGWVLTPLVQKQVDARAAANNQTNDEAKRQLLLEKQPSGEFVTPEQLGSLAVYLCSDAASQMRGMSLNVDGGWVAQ
β-hydroxybutyrate dehydrogenase, sequence (A0A4R3I0R9 entry or part of it): as above

| half-life [1] | Compound | CLint Ratio (NCE/PCE) [2] | T1/2 Δ (%) [2] | ^DV [2] | ^D(V/K) [2] | CLint [2] | clearance predicted to be reduced by, compared to D-β-hydroxybutyric acid [2, 3] | increase in half-life (T1/2) [2, 4] | half-life [2] | Vmax ([2]; 0.167 mM to 6.7 mM) | clearance predicted to be increased by, compared to D-β-hydroxybutyric acid [2, 3] | decrease in half-life (T1/2) [2, 4] |
| --- | --- | --- | --- | --- | --- | --- | --- | --- | --- | --- | --- | --- |
| 36.4 min | [2H][C@](C)(O)CC(=O)O [Compound 100, (R)-3-Hydroxybutanoic-3-d1 Acid] | 0.7 | 40.2% | 1.1 | 1.4 | 0.0190 mL/min | 30% | 40% | – | – | – | – |
| – | [2H]C([2H])([2H])[C@@]([2H])(O)CC(=O)O [Compound 102, (R)-3-hydroxybutanoic-3,4,4,4-d4 Acid] | 0.5 | 114% | 1.0 | 2.1 | 0.0125 mL/min | 50% | 114% | 55.7 min | 0.0213 µmol/mL/min | – | – |
| – | [2H]C([2H])([2H])[C@@H](O)CC(=O)O [Compound 202, (R)-3-hydroxybutanoic-4,4,4-d3 Acid] | 2.0 | −48.7% | 0.7 | 0.5 | 0.0520 mL/min | – | – | 13.3 min | 0.0330 µmol/mL/min | 100% | ~49% |
| 26 min | C[C@@H](O)CC(=O)O [DBHB, D-β-hydroxybutyric acid, reference compound] | – | – | – | – | 0.0267 mL/min | – | – | – | – | – | – |
